From PMC6268315, “Investigating the Spectrum of Biological Activity of Substituted Quinoline-2-Carboxamides and Their Isosteres ^†” (Molecules, 2012)
Values joined by “and” are separate entries in the source; they are usually repeats but may differ in a detail not shown here. Identical values can stand only once.

Experiments:
[1] = tested on: photosynthetic electron transport (PET) in spinach chloroplasts; assay: Inhibition of photosynthetic electron transport (PET) in spinach chloroplasts; format: biochemical, Spinacia oleracea L.; conditions: photoreduction of DCPIP, pH 7.2
Description: Chloroplasts were prepared from spinach (Spinacia oleracea L.) according to Masarovicova and Kralova. The inhibition of photosynthetic electron transport (PET) in spinach chloroplasts was determined spectrophotometrically (Genesys 6, Thermo Scientific, USA), using an artificial electron acceptor 2,6-dichlorophenol-indophenol (DCIPP) according to Kralova et al., and the rate of photosynthetic electron transport was monitored as a photoreduction of DCPIP. The measurements were carried out in phosphate buffer (0.02 mol/L, pH 7.2) containing sucrose (0.4 mol/L), MgCl2 (0.005 mol/L) and NaCl (0.015 mol/L). The chlorophyll content was 30 mg/L in these experiments and the samples were irradiated (~100 W/m^2 with 10 cm distance) with a halogen lamp (250 W) using a 4 cm water filter to prevent warming of the samples (suspension temperature 22 °C). The studied compounds were dissolved in DMSO due to their limited water solubility. […] The inhibitory efficiency of the studied compounds was expressed by IC50 values, i.e., by molar concentration of the compounds causing 50% decrease in the oxygen evolution rate relative to the untreated control.

| SMILES | melting point [°C] | IC50 [1] |
| --- | --- | --- |
| O=C(Nc1ccc(F)cc1)c1ccc2ccccc2c1 [Compound 34c, N-(4-Fluorophenyl)-2-naphthamide] | 191 |  |
| O=C(NCc1ccccc1)c1ccc2ccccc2n1 [Compound 10, N-Benzylquinoline-2-carboxamide] | 123 to 124 | 59.4 µM |
| O=C(Nc1cccc(C(F)(F)F)c1)c1ccc2ccccc2c1 [Compound 37b, N-(3-Trifluoromethylphenyl)-2-naphthamide] | 150 | 309 µM |
| Cc1cccc(NC(=O)c2ccc3ccccc3c2)c1 [Compound 33b, N-(3-Methylphenyl)-2-naphthamide] | 160 |  |
| O=C(Nc1ccccc1[N+](=O)[O-])c1ccc2ccccc2n1 [Compound 19a, N-(2-Nitrophenyl)quinoline-2-carboxamide] | 181 to 182 |  |
| O=C(Nc1ccccc1Cl)c1ccc2ccccc2n1 [Compound 16a, N-(2-Chlorophenyl)quinoline-2-carboxamide] | 130 to 131 | 56.3 µM |
| O=C(Nc1ccc(Cl)cc1)c1ccc2ccccc2c1 [Compound 35c, N-(4-Chlorophenyl)-2-naphthamide] | 218 |  |
| O=C(Nc1cccc([N+](=O)[O-])c1)c1ccc2ccccc2c1 [Compound 38b, N-(3-Nitrophenyl)-2-naphthamide] | 177 | 633 µM |
| Cc1ccc(NC(=O)c2ccc3ccccc3c2)cc1 [Compound 33c, N-(4-Methylphenyl)-2-naphthamide] | 195 |  |
| O=C(Nc1cccc(C(F)(F)F)c1)c1ccc2ccccc2n1 [Compound 18b, N-(3-Trifluoromethylphenyl)quinoline-2-carboxamide] | 121 to 122 | 330 µM |
| O=C(NC1CCCCCC1)c1ccc2ccccc2c1 [Compound 26, N-Cycloheptyl-2-naphthamide] | 157 to 158 | 216 µM |
| O=C(Nc1cccc(O)c1)c1ccc2ccccc2c1 [Compound 31b, N-(3-Hydroxyphenyl)-2-naphthamide] | 194 |  |
| O=C(Nc1ccc(Br)cc1)c1ccc2ccccc2c1 [Compound 36c, N-(4-Bromophenyl)-2-naphthamide] | 231 |  |
| O=C(Nc1ccccc1)c1ccc2ccccc2c1 [Compound 28, N-Phenyl-2-naphthamide] |  | 20.7 µM |
| O=C(NC1CCCCCCC1)c1ccc2ccccc2c1 [Compound 27, N-Cyclooctyl-2-naphthamide] | 145 to 146 | 688 µM |
| O=C(Nc1ccccc1Cl)c1ccc2ccccc2c1 [Compound 35a, N-(2-Chlorophenyl)-2-naphthamide] | 116 |  |
| CCCCCCCCCCCCNC(=O)c1ccc2ccccc2c1 [Compound 21, N-Dodecyl-2-naphthamide] | 102 to 103 | 845 µM |
| O=C(c1ccc2ccccc2c1)N1CCCCC1 [Compound 23, 1-(2-Naphthoyl)piperidine] | 97 to 98 |  |
| O=C(NC1CCCC1)c1ccc2ccccc2c1 [Compound 24, N-Cyclopentyl-2-naphthamide] | 190 to 191 |  |
| Cc1ccccc1NC(=O)c1ccc2ccccc2c1 [Compound 33a, N-(2-Methylphenyl)-2-naphthamide] | 146 |  |
| O=C(Nc1cccc(F)c1)c1ccc2ccccc2c1 [Compound 34b, N-(3-Fluorophenyl)-2-naphthamide] | 167 |  |
| O=C(Nc1ccccc1[N+](=O)[O-])c1ccc2ccccc2c1 [Compound 38a, N-(2-Nitrophenyl)-2-naphthamide] | 136 |  |
| O=C(c1ccc2ccccc2n1)N1CCCCC1 [Compound 4, 2-(Piperidin-1-ylcarbonyl)quinoline] | 83 to 84 |  |
| Cc1ccccc1NC(=O)c1ccc2ccccc2n1 [Compound 14a, N-(2-Methylphenyl)quinoline-2-carboxamide] | 100 to 101 | 143 µM |
| CN(C)C(=O)Nc1ccc(Cl)c(Cl)c1 [DCMU, 3-(3,4-dichlorophenyl)-1,1-dimethylurea, reference compound] |  | ~1.9 µM and 1.9 µM |
| O=C(Nc1ccc([N+](=O)[O-])cc1)c1ccc2ccccc2c1 [Compound 38c, N-(4-Nitrophenyl)-2-naphthamide] | 200 | 260 µM |
| O=C(Nc1ccccc1Br)c1ccc2ccccc2n1 [Compound 17a, N-(2-Bromophenyl)quinoline-2-carboxamide] | 134 to 135 | 92.2 µM |

| SMILES | melting point [°C] | IC50 [1] |
| --- | --- | --- |
| O=C(Nc1ccccc1F)c1ccc2ccccc2n1 [Compound 15a, N-(2-Fluorophenyl)quinoline-2-carboxamide] | 116 to 117 | 98.1 µM |
| O=C(Nc1cccc([N+](=O)[O-])c1)c1ccc2ccccc2n1 [Compound 19b, N-(3-Nitrophenyl)quinoline-2-carboxamide] | 189 to 190 |  |
| O=C(Nc1cccc(Br)c1)c1ccc2ccccc2n1 [Compound 17b, N-(3-Bromophenyl)quinoline-2-carboxamide] | 139 to 140 | 409 µM |
| O=C(Nc1cccc(Cl)c1)c1ccc2ccccc2n1 [Compound 16b, N-(3-Chlorophenyl)quinoline-2-carboxamide] | 127 to 128 | 91.9 µM |
| O=C(Nc1ccc(C(F)(F)F)cc1)c1ccc2ccccc2n1 [Compound 18c, N-(4-Trifluoromethylphenyl)quinoline-2-carboxamide] | 147 to 148 |  |
| O=C(Nc1ccc(Br)cc1)c1ccc2ccccc2n1 [Compound 17c, N-(4-Bromophenyl)quinoline-2-carboxamide] | 157 to 158 | 308 µM |
| Cc1ccc(NC(=O)c2ccc3ccccc3n2)cc1 [Compound 14c, N-(4-Methylphenyl)quinoline-2-carboxamide] | 107 to 108 |  |
| O=C(Nc1ccc([N+](=O)[O-])cc1)c1ccc2ccccc2n1 [Compound 19c, N-(4-Nitrophenyl)quinoline-2-carboxamide] | 227 to 228 |  |
| COc1cccc(NC(=O)c2ccc3ccccc3c2)c1 [Compound 32b, N-(3-Methoxyphenyl)-2-naphthamide] | 142 | 306 µM |
| O=C(Nc1ccccc1O)c1ccc2ccccc2n1 [Compound 12a, N-(2-Hydroxyphenyl)quinoline-2-carboxamide] | 219 to 220 | 16.3 µM |
| O=C(Nc1ccc(Cl)cc1)c1ccc2ccccc2n1 [Compound 16c, N-(4-Chlorophenyl)quinoline-2-carboxamide] | 134 to 135 | 148 µM |
| O=C(Nc1ccccc1Br)c1ccc2ccccc2c1 [Compound 36a, N-(2-Bromophenyl)-2-naphthamide] | 123 |  |
| O=C(NCc1ccccc1)c1ccc2ccccc2c1 [Compound 29, N-Benzyl-2-naphthamide] | 138 to 139 | 7.5 µM |
| O=C(NC1CCCCC1)c1ccc2ccccc2c1 [Compound 25, N-Cyclohexyl-2-naphthamide] | 184 to 185 |  |
| O=C(Nc1ccccc1F)c1ccc2ccccc2c1 [Compound 34a, N-(2-Fluorophenyl)-2-naphthamide] | 122 |  |
| O=C(Nc1ccc(C(F)(F)F)cc1)c1ccc2ccccc2c1 [Compound 37c, N-(4-Trifluoromethylphenyl)-2-naphthamide] | 224 |  |
| O=C(Nc1cccc(O)c1)c1ccc2ccccc2n1 [Compound 12b, N-(3-Hydroxyphenyl)quinoline-2-carboxamide] | 154 to 155 |  |
| O=C(Nc1ccc(F)cc1)c1ccc2ccccc2n1 [Compound 15c, N-(4-Fluorophenyl)quinoline-2-carboxamide] | 115 to 116 | 75.3 µM |
| COc1cccc(NC(=O)c2ccc3ccccc3n2)c1 [Compound 13b, N-(3-Methoxyphenyl)quinoline-2-carboxamide] | 117 to 118 |  |
| O=C(Nc1cccc(Cl)c1)c1ccc2ccccc2c1 [Compound 35b, N-(3-Chlorophenyl)-2-naphthamide] | 180 | 81 µM |
| O=C(Nc1ccccc1C(F)(F)F)c1ccc2ccccc2n1 [Compound 18a, N-(2-Trifluoromethylphenyl)quinoline-2-carboxamide] | 120 to 121 | 109 µM |
| O=C(NCCc1ccccc1)c1ccc2ccccc2c1 [Compound 30, N-(2-Phenylethyl)-2-naphthamide] | 133 to 134 |  |
| CC(C)NC(=O)c1ccc2ccccc2c1 [Compound 20, N-Isopropyl-2-naphthamide] | 174 to 176 | 353 µM |
| O=C(Nc1cccc(F)c1)c1ccc2ccccc2n1 [Compound 15b, N-(3-Fluorophenyl)quinoline-2-carboxamide] | 126 to 127 | 86.9 µM |
| COc1ccc(NC(=O)c2ccc3ccccc3n2)cc1 [Compound 13c, N-(4-Methoxyphenyl)quinoline-2-carboxamide] | 130 to 131 |  |
| COc1ccccc1NC(=O)c1ccc2ccccc2n1 [Compound 13a, N-(2-Methoxyphenyl)quinoline-2-carboxamide] | 111 to 112 |  |
| O=C(Nc1ccc(O)cc1)c1ccc2ccccc2n1 [Compound 12c, N-(4-Hydroxyphenyl)quinoline-2-carboxamide] | 230 to 231 |  |
